# Measurements: PubChem BioAssay (NCI)
# “And” between values parts separate entries of the source, which are not always exact repeats. Equal values may be shown once.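 1) Cells in 96-well plates. 2) Compound, 48 h, 5 concentrations. 3) Linear interpolation between surrounding doses. 4) Unreached endpoint = highest concentration. TGI: concentration producing complete growth inhibition.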
# Key:
# Assay in all cases: growth of human tumour cells (NCI), 48 h
# SNB-78 CNS = test system: SNB-78 CNS
# HL-60(TB) leukemia = test system: HL-60(TB) leukemia
# SR leukemia = test system: SR leukemia
# COLO 205 colon = test system: COLO 205 colon
# HCC-2998 colon = test system: HCC-2998 colon
# XF 498 CNS = test system: XF 498 CNS
# M19-MEL melanoma = test system: M19-MEL melanoma
# SK-MEL-28 melanoma = test system: SK-MEL-28 melanoma
# SW-620 colon = test system: SW-620 colon
# RXF 393 renal = test system: RXF 393 renal
# RPMI-8226 leukemia = test system: RPMI-8226 leukemia
# SK-MEL-5 melanoma = test system: SK-MEL-5 melanoma
# HCT-116 colon = test system: HCT-116 colon
# M14 melanoma = test system: M14 melanoma
# DMS 273 small cell lung = test system: DMS 273 small cell lung
# HOP-92 NSCLC = test system: HOP-92 NSCLC
# NCI-H23 lung = test system: NCI-H23 lung
# SN12C renal = test system: SN12C renal
# NCI-H226 lung = test system: NCI-H226 lung
# TK-10 renal = test system: TK-10 renal
# ACHN renal = test system: ACHN renal
# HOP-18 NSCLC = test system: HOP-18 NSCLC
# MALME-3M melanoma = test system: MALME-3M melanoma
# CAKI-1 renal = test system: CAKI-1 renal
# NCI-H522 lung = test system: NCI-H522 lung
# OVCAR-4 ovarian = test system: OVCAR-4 ovarian
# SK-MEL-2 melanoma = test system: SK-MEL-2 melanoma
# A549 NSCLC = test system: A549 NSCLC
# K-562 leukemia = test system: K-562 leukemia
# SK-OV-3 ovarian = test system: SK-OV-3 ovarian
# EKVX NSCLC = test system: EKVX NSCLC
# DMS 114 small cell lung = test system: DMS 114 small cell lung
# SNB-75 CNS = test system: SNB-75 CNS
# OVCAR-8 ovarian = test system: OVCAR-8 ovarian
# UACC-257 melanoma = test system: UACC-257 melanoma
# DLD-1 colon = test system: DLD-1 colon
# IGROV1 ovarian = test system: IGROV1 ovarian
# U251 CNS = test system: U251 CNS
# SNB-19 CNS = test system: SNB-19 CNS
# KM20L2 colon = test system: KM20L2 colon
# KM12 colon = test system: KM12 colon
# HT29 colon = test system: HT29 colon
# OVCAR-5 ovarian = test system: OVCAR-5 ovarian
# CCRF-CEM leukemia = test system: CCRF-CEM leukemia
# OVCAR-3 ovarian = test system: OVCAR-3 ovarian
# LXFL 529 NSCLC = test system: LXFL 529 NSCLC
# UO-31 renal = test system: UO-31 renal
# SF-268 CNS = test system: SF-268 CNS
# 786-0 renal = test system: 786-0 renal
# HOP-62 NSCLC = test system: HOP-62 NSCLC
# MOLT-4 leukemia = test system: MOLT-4 leukemia
# A498 renal = test system: A498 renal
# NCI-H460 lung = test system: NCI-H460 lung
# SF-295 CNS = test system: SF-295 CNS
smiles,measurement,setting,value
COc1ccc(C2=C[C@]3(O)CCCN3C[C@@H]2c2ccc(OC)c(OC)c2)cc1,TGI,SNB-78 CNS,0.0338 µM
same,TGI,HL-60(TB) leukemia,< 0.0001 µM
same,TGI,SR leukemia,< 0.0001 µM
same,TGI,COLO 205 colon,< 0.0001 µM
same,TGI,HCC-2998 colon,0.101 µM
same,TGI,XF 498 CNS,0.449 µM
same,TGI,M19-MEL melanoma,0.000396 µM
same,TGI,SK-MEL-28 melanoma,0.00216 µM and 0.0197 µM
same,TGI,SW-620 colon,0.00183 µM
same,TGI,RXF 393 renal,0.0223 µM
same,TGI,RPMI-8226 leukemia,13.9 µM
same,TGI,SK-MEL-5 melanoma,< 0.0001 µM
same,TGI,HCT-116 colon,0.00112 µM
same,TGI,M14 melanoma,< 0.0001 µM
same,TGI,DMS 273 small cell lung,0.000172 µM
same,TGI,HOP-92 NSCLC,0.000527 µM
same,TGI,NCI-H23 lung,0.000105 µM
same,TGI,SN12C renal,> 100 µM
same,TGI,NCI-H226 lung,< 0.0001 µM
same,TGI,TK-10 renal,0.611 µM
same,TGI,ACHN renal,0.00185 µM
same,TGI,HOP-18 NSCLC,0.000214 µM
same,TGI,MALME-3M melanoma,< 0.0001 µM
same,TGI,CAKI-1 renal,0.00162 µM
same,TGI,NCI-H522 lung,< 0.0001 µM
same,TGI,OVCAR-4 ovarian,0.0384 µM
same,TGI,SK-MEL-2 melanoma,0.000164 µM
COc1ccc([C@@]2(O)c3c(ccc(O)c3OC)[C@H]2OC)c(OC)c1,TGI,A549 NSCLC,> 100 µM
same,TGI,K-562 leukemia,> 100 µM
same,TGI,SK-OV-3 ovarian,> 100 µM
same,TGI,EKVX NSCLC,> 100 µM
same,TGI,DMS 114 small cell lung,75.9 µM
same,TGI,HL-60(TB) leukemia,> 100 µM
same,TGI,SNB-75 CNS,> 100 µM
same,TGI,OVCAR-8 ovarian,> 100 µM
same,TGI,UACC-257 melanoma,> 100 µM
same,TGI,DLD-1 colon,> 100 µM
same,TGI,SR leukemia,> 100 µM
same,TGI,IGROV1 ovarian,> 100 µM
same,TGI,COLO 205 colon,> 100 µM
same,TGI,U251 CNS,> 100 µM
same,TGI,SNB-19 CNS,> 100 µM
same,TGI,KM20L2 colon,> 100 µM
same,TGI,KM12 colon,> 100 µM
same,TGI,HCC-2998 colon,> 100 µM
same,TGI,XF 498 CNS,> 100 µM
same,TGI,M19-MEL melanoma,> 100 µM
same,TGI,HT29 colon,> 100 µM
same,TGI,SK-MEL-28 melanoma,> 100 µM
same,TGI,OVCAR-5 ovarian,> 100 µM
same,TGI,CCRF-CEM leukemia,> 100 µM
same,TGI,SW-620 colon,> 100 µM
same,TGI,OVCAR-3 ovarian,> 100 µM
same,TGI,LXFL 529 NSCLC,> 100 µM
same,TGI,UO-31 renal,> 100 µM
same,TGI,RPMI-8226 leukemia,> 100 µM
same,TGI,SF-268 CNS,> 100 µM
same,TGI,786-0 renal,> 100 µM
same,TGI,SK-MEL-5 melanoma,> 100 µM
same,TGI,HCT-116 colon,> 100 µM
same,TGI,M14 melanoma,> 100 µM
same,TGI,HOP-92 NSCLC,> 100 µM
same,TGI,NCI-H23 lung,> 100 µM
same,TGI,SN12C renal,> 100 µM
same,TGI,HOP-62 NSCLC,> 100 µM
same,TGI,MOLT-4 leukemia,> 100 µM
same,TGI,NCI-H226 lung,> 100 µM
same,TGI,TK-10 renal,> 100 µM
same,TGI,ACHN renal,> 100 µM
same,TGI,MALME-3M melanoma,> 100 µM
same,TGI,A498 renal,> 100 µM
same,TGI,CAKI-1 renal,> 100 µM
same,TGI,NCI-H460 lung,> 100 µM
same,TGI,NCI-H522 lung,85.4 µM
same,TGI,OVCAR-4 ovarian,> 100 µM
same,TGI,SK-MEL-2 melanoma,> 100 µM
same,TGI,SF-295 CNS,> 100 µM
